{"source": "patent US8133912B2", "about": "(priority 2006, dated 2012)", "key": {"mouse": {"system": "mouse", "details": "in vivo, po; cited from earlier work"}, "cell growth": {"system": "cell growth", "format": "cell-based"}, "[1]": {"assay": "resolvability (solubility) in ultrapure water", "details": "5 mg scale in 50 μL ultrapure water, stirred"}}, "data": [{"substance": "tetramethyl arsenic [TeMA]", "values": [{"measurement": "LD50 (50% Lethal dose)", "setting": "mouse", "value": 900, "unit": "mg/kg"}, {"measurement": "IC50 (50% Growth inhibition)", "setting": "cell growth", "value": 8000, "unit": "µg/mL"}]}, {"substance": "methyl aquocobyrinic acid heptamethyl ester perchlorate [hydrophobic vitamin B12]", "values": [{"measurement": "resolvability to water", "setting": "[1]", "value": "not completely dissolved"}]}, {"substance": "methyl aquocobyrinic acid sodium perchlorate", "values": [{"measurement": "resolvability to water", "setting": "[1]", "value": "No precipitate occurred"}]}]}
